In patent US20070122437A1, “Novel insecticide composition and use thereof particularly for impregnating mosquito nets, fly screens and the like” (priority 2004, published 2007):

Experiments:
Format in all cases: in vivo
[1] = tested on: Aedes aegypti females, strain sensitive to pyrethroids; assay: Irritability test (time for first take-off in cone on impregnated paper), strain sensitive to pyrethroids
Description: (§1) In order to evaluate the irritant effect or irritability, an Ae. aegypti female which is not gorged and is from 2 to 5 days old is introduced into a polyethylene cone the bottom of which is an impregnated paper. After an adaptation time of 60 seconds, the time for first take-off is noted and recorded as time for First Take-off (or FT). After 256 seconds, if the mosquito has not taken off, the test is stopped. For each test, the flying activity of 50 females is noted, and each test is repeated three times. The females are sorted into classes according to their time for first take-off and the cumulative first take-off frequencies are used in order to calculate the time at which 50% of the females have taken off (FT50). All the tests take place under controlled conditions, at 27° C.±2 and 80% ±10 humidity.
(§2) The irritability tests were carried out (a female in a cone in contact with the impregnated surface, reading of the time for first take-off after the Ist minute has passed, 50 females per test) according to the following protocol.
Ae. aegypti females which have not fed on blood, from 2 to 5 days old, were introduced individually into plastic cones applied to treated filter papers. After an adaptation time of exactly 60 seconds, the time which has passed between the first landing and the next take-off was defined as being <<the first take-off time>> (FT). The observation was not extended for the rare mosquitoes which had not taken off after 256 seconds. For each test, 50 mosquitoes were tested individually. A simple computer program using the internal clock of a laptop computer was used in order to carry out this test and in order to analyze the results grouping the mosquitoes into classes for time of first take-off. The time at which 50% of the mosquitoes have left the treated surface (median first take-off time, FT50) and its confidence interval at 95% were then determined using the log-probit method.

[2] = tested on: Aedes aegypti females, strain sensitive to pyrethroids; assay: WHO tube test on impregnated paper (KD effect and 24 h mortality), strain sensitive to pyrethroids
Description: (§3) Determination of the LC100 usually takes place according to the standard tube test protocol defined by the World Health Organization (WHO) (6). Briefly, the tube test is composed of an observation tube and an exposure tube (the two tubes are removable) separated by a slide unit equipped with a partition making it possible to obstruct or re-establish the passage between the two tubes. The other end of each tube is sealed by a ventilation plug equipped with a mesh screen. Each tube is lined, for the purposes of the tests, with Whatman paper (standard qualitative filter paper ref 1002 917 or else Whatman N°1) held on the edges by two metal rings. The exposure tube receives paper impregnated with insecticide (impregnated surface on the inside) while the observation tube receives non-impregnated (neutral) paper. In order to impregnate the papers in a homogeneous fashion and to the saturation limit, 2 ml of solution constituted by 0.66 ml of silicone and 1.34 ml of acetone solution are used. For an impregnation at X mg/m^2, the quantity of active ingredient to be deposited on the paper (12 cm×15 cm i.e. 0.018 m^2) is 0.018.X mg of active ingredient (quantity to be adjusted as a function of the degree of purity of the technical product). This quantity of active ingredient is then diluted in 1.34 ml of acetone solution to which 0.66 ml of silicone is then added. The paper dries at ambient temperature, in the dark for 12 hours before the start of the test. The concentrations are expressed in % of active ingredient relative to the volume of silicone on the paper (as the acetone is volatile).
In order to evaluate the mortality and the KD effect, 25 Ae. aegypti females which are not gorged and are from 2 to 5 days old are introduced into the exposure tube and are left in contact for one hour at 27° C.±2 and 80%±10 humidity. The number of mosquitoes which have fallen to the bottom of the tube is noted every 10 minutes. After 60 minutes, the mosquitoes are transferred into the observation tube, with sugared juice and placed in an incubator at 27° C.±2 and 80% ±10 humidity. The mortality is noted at 24 hours. The time at which 50% of the females are knocked-down (KDT50) as well as its confidence interval are determined using a log-probit analysis (7). Four tubes are tested per solution and each test is repeated three times (triple test method).
The tarsal contact tests were implemented using filter paper (standard qualitative filter paper ref 1002 917 or else Whatman N° 1) impregnated with technical quality products according to the recommendations of the World Health Organization (WHO, 6). The filter papers were treated using solutions of insecticide and/or insect repellent diluted in acetone with silicone oil as support. The impregnation of the paper was carried out with 2 ml of the solutions to be tested, then the paper was dried for 12 h. The mortality and the KD effect resulting from the tarsal contacts with treated filter paper were measured using the adult mosquito test tubes of the WHO. The concentrations were expressed in weight of active ingredient relative to the surface of treated filter paper surface. Batches of 25 Ae. aegypti females which have not fed on blood, from 2 to 5 days old, were introduced into holding tubes and kept for 1 h (adaptation time) at 27±2° C. and 80±10% humidity. The mosquitoes were then transferred into the exposure tube and placed under dimmed light for 1 h. For the purpose of comparison with pyrethroids, which are rapid action insecticides, the number of mosquitoes knocked down at the bottom of the tubes was counted at regular intervals of 10 min. The time at which 50% of the mosquitoes are knocked down (KDT50) and its confidence interval at 95% were then determined using the log-probit method (7). The mortality was recorded after 24 hours of exposure. Each concentration was tested four times and each test was repeated three times with different groups of insects in order to consider inter-batch variability. […]

[3] = tested on: Aedes aegypti females, a strain resistant to pyrethroids (homozygous for the kdr gene); assay: WHO tube test on impregnated paper (KD effect and 24 h mortality), strain resistant to pyrethroids
Description: as §3, with “The concentrations are expressed in % of active ingredient relative to the volume of silicone on the paper (as the acetone is volatile).” left out
The tarsal contact tests were implemented using filter paper (standard qualitative filter paper ref 1002 917 or else Whatman N° 1) impregnated with technical quality products according to the recommendations of the World Health Organization (WHO, 6). […] The mortality and the KD effect resulting from the tarsal contacts with treated filter paper were measured using the adult mosquito test tubes of the WHO. […] For the purpose of comparison with pyrethroids, which are rapid action insecticides, the number of mosquitoes knocked down at the bottom of the tubes was counted at regular intervals of 10 min. […]

[4] = tested on: Aedes aegypti females, a strain resistant to pyrethroids (homozygous for the kdr gene); assay: Irritability test (time for first take-off in cone on impregnated paper), strain resistant to pyrethroids; conditions: 5.1 mg/m^2
Description: as §1, with “humidity. […]” for “humidity.”
as §2
Ae. aegypti females which have not fed on blood, from 2 to 5 days old, were introduced individually into plastic cones applied to treated filter papers. […] The time at which 50% of the mosquitoes have left the treated surface (median first take-off time, FT50) and its confidence interval at 95% were then determined using the log-probit method. […]

[5] = sensitive strain, impregnated paper

CCN(CC)C(=O)c1cccc(C)c1 [DEET, N,N-diethyl-meta-toluamide]
Irritability FT50 ([1]; 364 mg/m^2 on impregnated paper): 24.2 s
mortality at 364 mg/m2 ([2]; Aedes aegypti, 364 mg/m^2, 1 h contact, read after 24 h, sensitive strain): 0%
insecticide effect (in words) ([2]; DEET alone, 364 mg/m^2): does not itself have any insecticide effect
mortality at 364 mg/m2 ([3]; 364 mg/m^2, 1 h contact, read after 24 h, resistant strain): 0%

CNC(=O)Oc1ccccc1OC(C)C [Propoxur, 2-isopropyloxyphenolmethylcarbamate]
Irritability FT50 ([1]; 7.28 mg/m^2 on impregnated paper): 133.9 s
mortality at 7.28 mg/m2 ([2]; Aedes aegypti): 34%
lethal concentration 30 (LC30) [2, 5]: 7.28 mg/m^2
mortality at 3.64 mg/m2 [3]: 34.5%

CC1(C)[C@H](C(=O)O[C@H](C#N)c2cccc(Oc3ccccc3)c2)[C@@H]1C=C(Br)Br [deltamethrin]
Irritability FT50 ([1]; 0.728 mg/m^2 (LC30)): 23.9 s
Irritability FT50 ([1]; 5.1 mg/m^2 (LC100)): 16.9 s
mortality at 0.728 mg/m2 ([2]; Aedes aegypti, 0.728 mg/m^2, 1 h contact, read after 24 h, sensitive strain): 34%
mortality at 5.1 mg/m2 ([2]; Aedes aegypti, 5.1 mg/m^2, 1 h contact, read after 24 h, sensitive strain): 100%
LC100 [2, 5]: 5.1 mg/m^2
lethal concentration 30 (LC30) [2, 5]: 0.728 mg/m^2
Irritability FT50 [4]: 34.98 s
mortality at 5.1 mg/m2 ([3]; 5.1 mg/m^2, 1 h contact, read after 24 h, resistant strain): 8%
